Experimental data published in ChEMBL document CHEMBL1201862, “PubChem BioAssay data set” (2004).
Calls of active or inactive are those of the source.

How the values were obtained:
HEK293 [1] = test: membrane integrity loss in HEK cells – cell-based, fluorescence, cytotoxicity control for IDE activator project, dose response (AID 588440); format: functional; settings: Homo sapiens;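 note: cytotoxicity by LDH release measuring loss of membrane integrity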
Insulin-degrading enzyme [2] = biological target: T1, Insulin-degrading enzyme (Homo sapiens, UniProt P14735); test: cellular IDE activation of Abeta substrate cleavage – fluorescence polarization, HEK cells, dose response (AID 588439); format: functional, cell-based
T1 sequence (P14735 whole entry): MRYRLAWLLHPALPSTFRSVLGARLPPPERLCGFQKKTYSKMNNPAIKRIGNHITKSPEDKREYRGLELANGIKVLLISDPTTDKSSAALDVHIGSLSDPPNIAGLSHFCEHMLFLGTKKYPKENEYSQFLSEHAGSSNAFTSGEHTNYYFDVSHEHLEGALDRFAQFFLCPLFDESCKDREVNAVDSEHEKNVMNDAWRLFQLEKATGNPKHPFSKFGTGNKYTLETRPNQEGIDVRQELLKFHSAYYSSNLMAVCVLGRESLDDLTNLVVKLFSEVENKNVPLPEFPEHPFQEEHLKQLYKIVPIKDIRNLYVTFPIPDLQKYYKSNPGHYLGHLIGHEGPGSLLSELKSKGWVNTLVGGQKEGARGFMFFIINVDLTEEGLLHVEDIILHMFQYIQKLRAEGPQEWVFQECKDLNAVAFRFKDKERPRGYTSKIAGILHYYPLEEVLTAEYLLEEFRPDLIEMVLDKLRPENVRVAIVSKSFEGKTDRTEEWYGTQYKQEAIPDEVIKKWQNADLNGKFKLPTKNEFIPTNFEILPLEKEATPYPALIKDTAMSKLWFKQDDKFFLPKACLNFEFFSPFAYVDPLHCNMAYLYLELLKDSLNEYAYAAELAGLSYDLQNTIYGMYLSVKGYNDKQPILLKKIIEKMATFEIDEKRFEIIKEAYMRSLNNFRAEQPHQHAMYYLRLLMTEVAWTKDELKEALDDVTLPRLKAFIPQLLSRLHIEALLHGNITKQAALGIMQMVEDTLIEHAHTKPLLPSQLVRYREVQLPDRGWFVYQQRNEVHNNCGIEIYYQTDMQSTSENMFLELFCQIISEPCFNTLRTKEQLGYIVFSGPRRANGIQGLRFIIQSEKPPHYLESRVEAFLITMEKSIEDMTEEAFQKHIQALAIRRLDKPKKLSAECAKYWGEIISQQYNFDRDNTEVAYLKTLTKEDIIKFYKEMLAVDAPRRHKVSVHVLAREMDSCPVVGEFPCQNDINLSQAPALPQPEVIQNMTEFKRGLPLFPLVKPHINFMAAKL

Insulin-degrading enzyme [3] = biological target: T1, Insulin-degrading enzyme; test: recombinant IDE activation, cell-free – biochemical, fluorescence polarization, counter-screen for IDE activator project, dose response (AID 588681)
HEK293 [4] = test: optical interference in Abeta FP readout, dose response, artefact control for IDE activator project, biochemical, fluorescence polarization (AID 588442); format: functional, cell-based; settings: Homo sapiens
Estrogen receptor beta = Estrogen receptor beta (Homo sapiens, UniProt Q92731);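 note: recombinant ER-beta bound to coactivator SRC1 peptide in presence of estradiol agonist; inhibitors block coactivator peptide binding and lower the FRET signal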
Orexin receptor type 2 [5] = biological target: T2, Orexin receptor type 2 (Homo sapiens, UniProt O43614); test: Counterscreen assay for antagonists of the orexin 1 receptor (OX1R; HCRTR1): Homogeneous Time Resolved Fluorescence (HTRF)-based cell-based dose response assay for antagonists of the orexin 2 receptor (OX2R; HCRTR2), run by assay provider.; format: functional
T2 sequence (O43614 whole entry): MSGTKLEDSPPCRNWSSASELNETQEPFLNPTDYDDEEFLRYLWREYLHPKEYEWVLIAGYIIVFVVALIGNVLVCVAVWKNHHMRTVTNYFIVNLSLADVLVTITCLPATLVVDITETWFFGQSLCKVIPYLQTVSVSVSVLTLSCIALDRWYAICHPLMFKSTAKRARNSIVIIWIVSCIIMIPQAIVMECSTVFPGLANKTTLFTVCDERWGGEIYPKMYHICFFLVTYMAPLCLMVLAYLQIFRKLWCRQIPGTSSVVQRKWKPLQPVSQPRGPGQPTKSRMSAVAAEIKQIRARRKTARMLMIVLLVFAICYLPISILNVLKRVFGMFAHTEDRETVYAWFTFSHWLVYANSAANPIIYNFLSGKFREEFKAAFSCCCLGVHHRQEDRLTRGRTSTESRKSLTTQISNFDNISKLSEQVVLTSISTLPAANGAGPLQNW

[6] = Counterscreen for antagonists of the orexin 1 receptor (OX1R; HCRTR1): Fluorescence-based cell-based high throughput dose response assay to identify antagonists of the parental CHO cell line. [Related pubchem assays (depositor defined):AID434989, AID435008, AID463079, AID485270, AID492963, AID492964, AID492965, AID493232, AID504699, AID504701]; format: functional
CHO-K1 = test: Counterscreen for antagonists of the orexin 1 receptor (OX1R; HCRTR1): Homogeneous time resolved fluorescence (HTRF)-based cell-based dose response assay to identify antagonists of the parental CHO-K1 cell line. [Related pubchem assays (depositor defined):AID434989, AID435008, AID463079, AID485270, AID492963, AID492964, AID492965, AID493232, AID504699, AID504701]; format: functional; settings: Cricetulus griseus;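 note: potency for inhibition of ATP-stimulated IP1 production as antagonists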
[7] = biological target: T3, Orexin/Hypocretin receptor type 1 (Homo sapiens, UniProt O43613); test: Homogeneous Time Resolved Fluorescence (HTRF)-based cell-based high throughput dose response assay for antagonists of the orexin 1 receptor (OX1R; HCRTR1). [Related pubchem assays (depositor defined):AID434989, AID435008, AID463079, AID485270, AID492963, AID492964, AID492965, AID493232, AID504717, AID504718]; format: functional
T3 sequence (O43613 whole entry): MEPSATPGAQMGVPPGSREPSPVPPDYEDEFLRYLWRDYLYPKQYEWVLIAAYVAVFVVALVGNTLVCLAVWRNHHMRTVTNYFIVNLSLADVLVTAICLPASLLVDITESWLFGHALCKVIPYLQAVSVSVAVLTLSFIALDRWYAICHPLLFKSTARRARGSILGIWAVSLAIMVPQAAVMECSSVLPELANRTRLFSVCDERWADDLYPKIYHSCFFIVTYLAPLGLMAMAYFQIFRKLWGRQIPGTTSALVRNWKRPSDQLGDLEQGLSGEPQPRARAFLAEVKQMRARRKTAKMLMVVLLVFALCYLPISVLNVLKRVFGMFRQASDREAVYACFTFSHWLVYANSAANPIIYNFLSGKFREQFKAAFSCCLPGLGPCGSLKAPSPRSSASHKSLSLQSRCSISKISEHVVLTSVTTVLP

[8] = biological target: T3, Orexin/Hypocretin receptor type 1; test: Fluorescence-based cell-based high throughput dose response assay for antagonists of the orexin 1 receptor (OX1R; HCRTR1). [Related pubchem assays (depositor defined):AID434989, AID435008, AID463079, AID485270, AID492963, AID492964, AID492965, AID493232, AID504717, AID504718]; format: functional
Orexin receptor type 2 [9] = biological target: T2, Orexin receptor type 2; test: Counterscreen assay for antagonists of the orexin 1 receptor (OX1R; HCRTR1): Fluorescence-based cell-based dose response assay for antagonists of the orexin 2 receptor (OX2R; HCRTR2), run by assay provider.; format: functional
[10] = NIH3T3 cell viability loss – ATP luminescence, mouse fibroblasts, counter-screen, dose response (AID 2010); format: functional, cell-based;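 note: cells exposed to compound for about 90 hours before reading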
Protein RecA = biological target: T4, Protein RecA (Mycobacterium tuberculosis, UniProt P9WHJ3); test: Fluorescence Cell-Free Homogeneous Dose Retest to Identify Inhibitors of RecA-Intein Splicing Activity. [Related pubchem assays (depositor defined):AID2097, AID2223, AID489010, AID492950]; format: functional
T4 sequence (P9WHJ3 whole entry): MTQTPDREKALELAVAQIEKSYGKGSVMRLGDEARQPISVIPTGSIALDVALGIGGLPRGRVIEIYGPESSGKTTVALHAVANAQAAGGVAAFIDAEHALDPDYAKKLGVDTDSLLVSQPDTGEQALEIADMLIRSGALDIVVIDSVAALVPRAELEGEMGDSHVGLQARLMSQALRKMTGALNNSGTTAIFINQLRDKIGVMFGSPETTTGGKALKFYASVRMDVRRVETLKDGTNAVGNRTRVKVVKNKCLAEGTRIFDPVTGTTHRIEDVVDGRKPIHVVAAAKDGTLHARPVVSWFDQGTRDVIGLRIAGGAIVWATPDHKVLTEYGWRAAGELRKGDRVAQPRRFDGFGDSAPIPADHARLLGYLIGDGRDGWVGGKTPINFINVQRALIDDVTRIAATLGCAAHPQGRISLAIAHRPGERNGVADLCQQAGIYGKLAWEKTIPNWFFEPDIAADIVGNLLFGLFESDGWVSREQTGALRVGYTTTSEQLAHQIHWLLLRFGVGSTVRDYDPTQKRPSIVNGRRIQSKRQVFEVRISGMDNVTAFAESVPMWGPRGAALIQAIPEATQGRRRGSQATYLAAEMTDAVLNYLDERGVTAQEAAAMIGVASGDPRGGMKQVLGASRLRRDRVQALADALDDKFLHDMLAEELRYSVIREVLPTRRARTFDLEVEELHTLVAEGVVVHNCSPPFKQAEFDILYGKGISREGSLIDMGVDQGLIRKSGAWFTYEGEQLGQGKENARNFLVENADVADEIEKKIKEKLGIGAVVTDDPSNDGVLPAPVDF

Vero = test: viability of Vero cells under compound – cytotoxicity control for flavivirus capping enzyme inhibitors (AID 588742); format: functional; settings: Chlorocebus sabaeus
[11] = biological target: T5, Replicative DNA helicase DnaB (Mycobacterium tuberculosis, UniProt P9WMR3); test: DnaB intein splicing inhibitors, dose response, biochemical, cell-free fluorescence (AID 449749); format: functional
T5 sequence (P9WMR3 whole entry): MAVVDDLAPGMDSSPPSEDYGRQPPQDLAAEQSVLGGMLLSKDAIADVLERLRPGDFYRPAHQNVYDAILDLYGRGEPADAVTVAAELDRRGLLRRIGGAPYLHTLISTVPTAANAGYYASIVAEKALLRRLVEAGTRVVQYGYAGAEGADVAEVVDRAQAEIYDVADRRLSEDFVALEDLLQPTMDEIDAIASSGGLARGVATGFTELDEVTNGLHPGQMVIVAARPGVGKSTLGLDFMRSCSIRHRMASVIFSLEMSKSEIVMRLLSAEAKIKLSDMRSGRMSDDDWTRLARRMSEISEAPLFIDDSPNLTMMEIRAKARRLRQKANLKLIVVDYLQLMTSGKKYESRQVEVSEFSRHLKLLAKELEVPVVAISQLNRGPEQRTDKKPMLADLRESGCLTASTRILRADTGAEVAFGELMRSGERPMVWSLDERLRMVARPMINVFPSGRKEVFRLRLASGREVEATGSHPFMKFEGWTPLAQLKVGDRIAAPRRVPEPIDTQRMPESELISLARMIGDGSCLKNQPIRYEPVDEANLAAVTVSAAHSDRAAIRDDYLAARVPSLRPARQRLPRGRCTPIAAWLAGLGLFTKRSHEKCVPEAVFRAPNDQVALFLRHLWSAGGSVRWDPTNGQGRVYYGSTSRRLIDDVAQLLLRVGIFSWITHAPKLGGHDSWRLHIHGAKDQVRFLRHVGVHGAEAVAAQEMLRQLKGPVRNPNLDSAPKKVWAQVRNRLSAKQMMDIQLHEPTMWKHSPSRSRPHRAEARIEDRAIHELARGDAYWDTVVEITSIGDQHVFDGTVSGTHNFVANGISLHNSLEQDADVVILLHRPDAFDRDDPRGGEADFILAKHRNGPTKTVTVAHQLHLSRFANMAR

[12] = Trypanosoma cruzi growth suppression in host cells – NIH3T3 host cells, beta-gal luminescence, confirmation (AID 2044); format: functional, cell-based;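 note: intracellular parasites grown in NIH/3T3 mouse fibroblasts as host cells; luminescent beta-galactosidase reporter signal from transgenic T. cruzi replicating inside host cells; inhibitors lower the luminescence signal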
Genome polyprotein = Genome polyprotein (dengue virus type 2, UniProt P29990); test: flavivirus cap methylation enzyme inhibition – biochemical, confirmation dose response, primary screen (AID 588689); format: functional
[13] = microbe, parasite or virus in culture; format: functional; settings: Mycobacterium tuberculosis

Sequence of Estrogen receptor beta (Q92731 whole entry): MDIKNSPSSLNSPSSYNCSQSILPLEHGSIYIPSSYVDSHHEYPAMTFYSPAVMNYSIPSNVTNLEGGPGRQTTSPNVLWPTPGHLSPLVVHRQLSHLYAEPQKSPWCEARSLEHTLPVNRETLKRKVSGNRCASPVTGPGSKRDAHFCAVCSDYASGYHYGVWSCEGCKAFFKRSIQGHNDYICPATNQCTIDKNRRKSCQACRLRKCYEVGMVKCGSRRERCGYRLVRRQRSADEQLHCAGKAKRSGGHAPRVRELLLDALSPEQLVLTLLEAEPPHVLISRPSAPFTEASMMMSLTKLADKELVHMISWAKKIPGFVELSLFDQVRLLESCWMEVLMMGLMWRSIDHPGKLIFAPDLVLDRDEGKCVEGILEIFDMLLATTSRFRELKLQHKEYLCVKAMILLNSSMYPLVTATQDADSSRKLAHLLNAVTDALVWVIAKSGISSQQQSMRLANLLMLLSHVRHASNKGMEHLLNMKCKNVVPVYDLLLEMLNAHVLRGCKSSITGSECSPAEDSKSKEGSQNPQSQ
Sequence of Genome polyprotein (P29990 2492-3391 limits assumed): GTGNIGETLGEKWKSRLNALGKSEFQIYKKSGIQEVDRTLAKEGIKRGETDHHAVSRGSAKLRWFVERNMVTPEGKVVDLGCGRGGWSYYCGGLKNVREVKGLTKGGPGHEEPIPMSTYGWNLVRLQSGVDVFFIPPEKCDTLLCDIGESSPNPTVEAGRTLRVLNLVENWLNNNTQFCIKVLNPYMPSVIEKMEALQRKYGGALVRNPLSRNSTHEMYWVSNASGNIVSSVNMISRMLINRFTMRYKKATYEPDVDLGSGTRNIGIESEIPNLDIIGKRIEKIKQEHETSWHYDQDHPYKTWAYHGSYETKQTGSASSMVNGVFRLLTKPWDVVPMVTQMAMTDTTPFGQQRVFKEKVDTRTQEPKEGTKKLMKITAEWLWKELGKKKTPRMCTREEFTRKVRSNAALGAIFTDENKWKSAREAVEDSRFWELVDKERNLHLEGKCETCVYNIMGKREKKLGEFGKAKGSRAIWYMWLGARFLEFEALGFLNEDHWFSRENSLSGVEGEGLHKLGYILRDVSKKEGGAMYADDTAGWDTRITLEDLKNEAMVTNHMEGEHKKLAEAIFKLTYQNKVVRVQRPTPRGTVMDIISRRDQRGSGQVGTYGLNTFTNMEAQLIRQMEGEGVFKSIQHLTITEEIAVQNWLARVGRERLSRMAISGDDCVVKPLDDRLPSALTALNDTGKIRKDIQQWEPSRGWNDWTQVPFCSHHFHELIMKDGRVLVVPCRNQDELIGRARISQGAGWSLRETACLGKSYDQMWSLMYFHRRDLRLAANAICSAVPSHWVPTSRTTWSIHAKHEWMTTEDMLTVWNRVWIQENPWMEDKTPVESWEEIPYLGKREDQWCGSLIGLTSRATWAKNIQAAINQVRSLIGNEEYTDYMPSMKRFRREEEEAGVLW

Compound	IC50 (HEK293 [1])	EC50 (Insulin-degrading enzyme [2])	EC50 (Insulin-degrading enzyme [3])	EC50 (HEK293 [4])	IC50 (Orexin receptor type 2 [5])	IC50 [6]	IC50 (CHO-K1)	IC50 [7]	IC50 [8]	IC50 (Orexin receptor type 2 [9])	other results
O=C(c1cc([N+](=O)[O-])ccc1N1CCOCC1)N1CCN(c2ccc([N+](=O)[O-])cc2)CC1	> 89.2 µM (inactive)	3.16 µM (active)	3.64 µM (active)	1.09 µM (active)	–	–	–	–	–	–	–
CC(=O)Nc1cc2c(cc1C(=O)c1ccccc1)OCCO2	> 89.2 µM (inactive)	> 54.7 µM (inactive)	> 54.7 µM (inactive)	> 54.7 µM (inactive)	–	–	–	–	–	–	IC50 (Estrogen receptor beta): > 50 µM (not active)
Cc1cc(NC(=O)CCC(=O)N(Cc2cccs2)C(C(=O)NC2CCCC2)c2ccccc2)no1 (configuration not stated)	–	–	–	–	> 50 µM (inactive)	> 49.8 µM (inactive)	> 66.2 µM (inactive)	0.315 µM (active)	12.7 µM (inactive)	42.4 µM (inactive)	–
COc1ccc(CNc2nc3ccccc3n2CCN2CCOCC2)cc1	> 89.1 µM (inactive)	> 54.7 µM (inactive)	> 54.7 µM (inactive)	> 55.9 µM (inactive)	–	–	–	–	–	–	–
C=CCNc1nc(N(c2ccccc2)c2ccccc2)nc(-n2ccnc2)n1	–	–	–	–	> 50 µM (inactive)	> 49.8 µM (inactive)	> 66.2 µM (inactive)	6.47 µM (active)	> 49.8 µM (inactive)	> 88.8 µM (inactive)	–
O=[N+]([O-])c1cc([N+](=O)[O-])c2c(Nc3ccccc3)n(-c3ccccc3)[n+]([O-])c2c1	–	–	–	–	–	–	–	–	–	–	EC50 [10]: > 60 µM (not active); EC50 (Protein RecA): 1.97 µM (active); CC50 (Vero): 38.9 µM (active); AC50 [11]: 5.84 µM (active); EC50 [12]: 0.313 µM (active); IC50 (Genome polyprotein): 30.9 µM (active); CC50 [13]: 29.7 µM (active)
